The text below walks through data of patent US12241087B2, “Compositions and methods for differentiating stem cells into NK cells” (CRISPR THERAPEUTICS AG, priority 2020, dated 2025).

For assay [1], the system named is HSPC. Put plainly: Design of Experiment (DoE) I, day 6 to day 20. The format is cell-based, human. The conditions noted are these: differentiation and number of cells at day 20. The protocol: This Example reports the identification of optimized concentrations for certain components in the base media. A design of Experiment (DoE) study was performed to determine the concentrations of zinc sulfate, β-mercaptoethanol, human serum, and glucose that would provide the most differentiation and increased number of cells at differentiation day 20. These factors were selected based on known chemical/biological effects of them in affect general cell proliferation and differentiation. Potential positive/negative involvement of β-mercaptoethanol, zinc ion, human serum, and glucose in NIK cell or lymphocyte cell proliferation, killer cell receptor function, and cytotoxicity have been previously reported. There were no known studies conducted on testing optimal range of these factors in NK cell induction from HSPC.

In assay [2] the test system is HSPC. Put plainly: Stage II basal media testing (HSPC to iNK), day 21 single cells. The conditions noted are these: in StemPro-based media. The format is cell-based, human. The protocol:
This Example investigates the use of various alternative base media that can be used for Stage II differentiation. […] The HSPC to iNK differentiation from day 6 further on was done in StemPro-34—based media (Table 12). […] In this Example, the […] until day 6 as described in Example 2 (i.e., steps 1-5). Each media was supplemented with 20 ng/mL IL7, 20 ng/mL IL15, 20 ng/mL SCF, 20 ng/mL Flt3L and 5 ng/mL of IL-3 for days 6-14 and 20 ng/mL IL7, 20 ng/mL IL15, 20 ng/mL SCF, 20 ng/mL Flt3L for days 14-21 of differentiation.
Day 21 single cells were profiled for CD45^+/CD56^+, CD56^+/NKG2D^+, CD56^+/CD94^+, and CD56^+/CD16^+ expression (FIG. 12). […] The DMEM/F12 2:1 basal media was chosen due to its price and higher availability for scale up production.

The test system of assay [3] is HSPC. The experiment in a line: Effect of β-mercaptoethanol on differentiation, CD45 and CD56 expression. The format is cell-based. The conditions noted are these: 50 μM in DMEM/F12 media with low zinc, low human serum. As to the method: To determine the effects of β-mercaptoethanol on differentiation, CD45+ and CD56+ expression was measured in cells cultured in Stempro34 media, DMEM/F12 media with low zinc, low human serum, and no β-mercaptoethanol (bME), or DMEM/F12 media with low zinc, low human serum, and 50 μM β-mercaptoethanol.

For assay [4], the system named is iPSC. The experiment in a line: Effect of WNT-C59 in NK-MED-006 medium on iNK induction. Format: cell-based, human. The conditions noted are these: 2 μM, day 20 cultures, AP2.0. As to the method:
The effect of including WNT-C59 (2 μM) in NK-MED-006 medium during iNK induction using the AP2.0 protocol was examined. […] The addition of WNT-C59 increased proportion of cells expressing non-NK lineage markers.

Assay [5] has as its system iPSC. Put plainly: Effect of CHIR-99021 concentration in NK-MED-005c medium on iNK induction. Format: cell-based, human. The conditions noted are these: 2.5, 3.5 or 4.5 μM, differentiation day 20, AP2.0. As to the method: To determine the optimal concentration of CHIR-99021, different concentrations (2.5 μM, 3.5 μM or 4.5 μM) were added to the NK-MED-005c medium (Table 30) to test their effect on iNK induction. Differentiation proceeded according to Protocol 2 (AP2.0) as described in Example 11. Cells were collected and analyzed using flow cytometry to detect CD45^+CD56^+ cells at differentiation day 20.

Assay [6] relates to iPSC. Put plainly: CD45/CD56 expression on day 28 after early modulation of WNT signaling. Format: cell-based, human. The protocol: For iPSC-HSPC differentiation optimization, CD45/CD56 expression on day 28 was measured (FIG. 10). The HSPC cells on day 6 were further differentiated to iNK in the StemPro-34—based differentiation media Table 12) in the presence of IL7, IL15, SCF. Flt3L, (IL3 was added for days 6-14 only). […] However, it was not an optimal condition as the single cells production and expansion was lower than in conditions in the presence of Activin A molecule (data not shown). Due to low CD56^+ cells formation on day 28, the HSPC to iNK differentiation conditions was optimized.

With `O=S(=O)([O-])[O-].[Zn+2]` [Zinc sulfate], the “direction of effect in DoE I” value in the assay on HSPC [1] was “positive effect”.
On to `OCCS` [β-mercaptoethanol], for which the “direction of effect in DoE I” value with HSPC [1] was “negative effect”. For the same compound, in the assay on HSPC [2], the iNK differentiation result is on record as “prevented iNK differentiation”. Besides, the “effect on iNK cell induction” value with HSPC [3] is “negative effect”.
`Cc1cc(-c2ccc(CC(=O)Nc3ccc(-c4cccnc4)cc3)cc2)ccn1` [WNT-C59]: in the assay with iPSC [4], the “proportion of cells expressing non-NK lineage markers” value is “increased” and the “proportion of iNK that expressed the myeloid progenitor marker CD33” value is “altered”.
Turning to `Cc1cnc(-c2cnc(NCCNc3ccc(C#N)cn3)nc2-c2ccc(Cl)cc2Cl)[nH]1` [CHIR-99021, 6-[[2-[[4-(2,4-Dichlorophenyl)-5-(5-methyl-1H-imidazol-2-yl)-2-pyrimidinyl]amino]ethyl]amino]-3-pyridinecarbonitrile], the “proportion of CD45+CD56+ cells” value in the assay with iPSC [5] was “highest proportion of CD45^+CD56^+ cells were collected using a moderate amount”. The “CD56+ percentage” value in the assay with iPSC [6] (day 28, condition #5, StemPro-34 based media) is recorded as “highest”. Besides, the “single cells production and expansion” value with iPSC [6] (versus conditions with Activin A, data not shown) was “lower”.
